One data set relates to MOLM-14 cells. Description: Nude mouse model harboring subcutaneous tumor. Format: in vivo. The following applies: 28 days. As for the experimental part:
The first day of administration was recorded as day 0, followed by continuous administration for 28 days (FIG. 4).

Another data set deals with STAT5. Description: Signaling pathways of FLT3 in cells: STAT5 phosphorylation. The settings on record: MV-4-11, MOLM-13 and MOLM-14 cells, 4 hours; Compound 1 0.001-0.3 μM, AC220 0.1 μM. Format: cell-based, human.
Data set [1] concerns MOLM-13, MOLM-14 and MV-4-11 cell lines. Description: Cell cycle distribution by flow cytometry (PI). The data set is classed as cell-based, human. The following applies: MOLM-13, MOLM-14 and MV-4-11, 12 or 24 hours; Compound 1 0.01-0.1 μM, AC220 0.1 μM. A general note: A flow cytometer gives signals particle by particle.
The subject of another data set is PARP and Caspase 3. Description: Cell apoptosis, Western Blot of PARP and Caspase 3 cleavage. (A western blot detects proteins with antibodies after separation by electrophoresis.)
For another data set, the system named is BaF3. Briefly: Cell proliferation, Cell Titer-Glo, GI50. Format: cell-based. The settings on record: Mus musculus; BaF3, 72 hours. As for the experimental part:
(§1) Compounds of the invention were evaluated for their inhibitory effects on proliferation of cancer cells as well as the selectivity thereof by testing their effects on growth of cancer cells (Table 2).
(§2) In this example the following cells were selected: human acute myeloid leukemia cells MV-4-11 (expressing FLT3[ITD] mutant gene), human acute myeloid leukemia cells MOLM-13 (expressing FLT3[ITD] mutant gene and wild-type FLT3 gene), human acute myeloid leukemia cells MOLM-14 (expressing FLT3[ITD] mutant gene and wild-type FLT3 gene), human acute myeloid leukemia cells OCI-AML3 (expressing FLT3[A680V] mutant gene), human acute myeloid leukemia cells U937 (expressing wild-type FLT3 gene), and mouse pro-B cells BaF3, and the above cells were purchased from ATCC.
(§3) Then the number of viable cells was determined by quantification of ATP in living cells using Cell Titer-Glo® (Promega, the USA) Luminescent Cell Viability Assay kit and thereby GI50 was calculated.
(Cellular ATP, detected with luciferase, serves as a proxy for viable cell number.)

A further data set concerns MV-4-11. Briefly: Cancer cell proliferation, Cell Titer-Glo, GI50. Format: cell-based. The following applies: Homo sapiens, MV4-11; MV-4-11, 72 hours. The protocol: as §1, §2, §3
The next data set has as its system MOLM-14. Description: Cancer cell proliferation, Cell Titer-Glo, GI50. Format: cell-based. The following applies: Homo sapiens; MOLM-14, 72 hours. As for the experimental part:
as §1, §2, §3

The test system of another data set is U937. Briefly: Cancer cell proliferation, Cell Titer-Glo, GI50. The data set is classed as cell-based. The following applies: Homo sapiens, U-937; U937, 72 hours. The protocol: as §1, §2, §3
For another data set, the system named is BaF3-TEL-FLT3 [D835Y]. Description: Cell proliferation, Cell Titer-Glo, GI50. The data set is classed as cell-based. The settings on record: Mus musculus, 72 hours. The protocol:
as §1
(§4) Mouse BaF3-FLT3[ITD] (stably expressing FLT3[ITD] mutant activated kinase), mouse tel-BaF3-FLT3-D835Y (stably expressing FLT3[D835Y]mutant activated kinase), mouse tel-BaF3-BMX (stably expressing BMX kinase), mouse tel-FLT3-BaF3 (stably expressing FLT3 kinase), mouse BaF3-FLT3-ITD-D835Y (stably expressing FLT3[ITD+D835Y]mutant activated kinase), mouse BaF3-FLT3-ITD-F691L (stably expressing FLT3[ITD+F691L]mutant activated kinase), mouse tel-cKIT-BaF3 (stably expressing cKIT kinase), mouse BaF3-tel-cKit-N882K (stably expressing cKIT-N882K mutant activated kinase), mouse BaF3-tel-cKit-D816V (stably expressing cKIT-D816V mutant activated kinase), mouse BaF3-tel-cKit-T670I (stably expressing cKIT-T670I mutant activated kinase), mouse TPR-MET-BaF3 (stably expressing MET kinase), mouse tel-BaF3-EGFR (stably expressing EGFR kinase), mouse BaF3-FL-EGFR-L858R (stably expressing EGFR[L858R]mutant activated kinase), mouse tel-BaF3-BLK (stably expressing BLK kinase), mouse tel-JAK1-BaF3 (stably expressing JAK1 kinase) and the like were also used (see Table 2 for details). The above cell lines were all constructed by our laboratory according to the following method: the kinase region sequences of human FLT3/ITD, FLT3 D835Y, BMX, FLT3, FLT3[ITD+D835Y], FLT3[ITD+F691L], cKIT, cKIT [N882K], cKIT [D816V], cKIT [T670I], MET, EGFR, EGFR [L858R], BLK, JAK1, FLT3[K663Q], FLT3[D835V], FLT3[D835H], PDGFRa, PEGFRb, VEGFR2, JAK2, JAK3, ABL were amplified by PCR, and inserted into MSCV-Puro vectors with N-terminal TEL or TPR fragments (purchased from Clontech), respectively. The vectors were stably transfected into mouse BaF3 cells (purchased from ATCC) by means of retrovirus, and the growth factor IL-3 were removed, eventually obtaining cell lines that are transferred protein (FLT3/ITD, FLT3 D835Y, BMX, FLT3, FLT3[ITD D835Y], FLT3[ITD+F691L], cKIT, cKIT [N882K], cKIT [D816V], cKIT [T670I], MET, EGFR, EGFR [L858R], BLK, JAK1, FLT3[K663Q], FLT3[D835V], FLT3[D835H], PDGFRa, PEGFRb, VEGFR2, JAK2, JAK3, ABL)-dependent.
as §3

The subject of another data set is BaF3-FLT3 [ITD]. Briefly: Cell proliferation, Cell Titer-Glo, GI50. Format: cell-based. The settings on record: Mus musculus, Ba/F3 FLT3-ITD, 72 hours. As for the experimental part: as §1, §4, §3
For a further data set, the system named is BaF3-TEL-FLT3 [K663Q]. Description: Cell proliferation, Cell Titer-Glo, GI50. The data set is classed as cell-based. The following applies: Mus musculus, 72 hours. As for the experimental part: as §1, §4, §3
For a further data set, the system named is BaF3-FLT3 [ITD + D835Y]. Briefly: Cell proliferation, Cell Titer-Glo, GI50. Format: cell-based. The settings on record: Mus musculus, Ba/F3 FLT3-ITD, 72 hours. The protocol: as §1, §4, §3
The next data set has as its system BaF3-TEL-FLT3. Description: Cell proliferation, Cell Titer-Glo, GI50. The following applies: Mus musculus; BaF3-TEL-FLT3, 72 hours. Format: cell-based. As for the experimental part:
as §1, §4, §3

In the next data set the test system is BaF3-TEL-cKit [T670I]. Description: Cell proliferation, Cell Titer-Glo, GI50. Format: cell-based. The settings on record: Mus musculus, 72 hours. The protocol: as §1, §4, §3
For another data set, the system named is BaF3-TEL-PEGFRb. Description: Cell proliferation, Cell Titer-Glo, GI50. Format: cell-based. The settings on record: Mus musculus, 72 hours. As for the experimental part:
as §1, §4, §3

Another data set relates to BaF3-TEL-cKit [D816V]. Briefly: Cell proliferation, Cell Titer-Glo, GI50. Format: cell-based. The settings on record: Mus musculus, 72 hours. The protocol:
as §1, §4, §3

A further data set concerns BaF3-TEL-cKIT. Description: Cell proliferation, Cell Titer-Glo, GI50. The data set is classed as cell-based. The following applies: Mus musculus, 72 hours. As for the experimental part:
as §1, §4, §3

In another data set the test system is BaF3-TEL-FLT3 [D835H]. Briefly: Cell proliferation, Cell Titer-Glo, GI50. The data set is classed as cell-based. The following applies: Mus musculus, 72 hours. As for the experimental part:
as §1, §4, §3

For the next data set, the system named is BaF3-FLT3 [ITD + F691L]. Description: Cell proliferation, Cell Titer-Glo, GI50. The following applies: Mus musculus, Ba/F3 FLT3-ITD, 72 hours. Format: cell-based. As for the experimental part:
as §1, §4, §3

The next data set deals with BaF3-TEL-FLT3 [D835V]. Briefly: Cell proliferation, Cell Titer-Glo, GI50. The settings on record: Mus musculus, 72 hours. Format: cell-based. As for the experimental part:
as §1, §4, §3

The test system of a further data set is BaF3-TEL-PDGFRa. Description: Cell proliferation, Cell Titer-Glo, GI50. Format: cell-based. The settings on record: Mus musculus, 72 hours. The protocol: as §1, §4, §3
The subject of another data set is BaF3-TEL-BMX. Briefly: Cell proliferation, Cell Titer-Glo, GI50. The data set is classed as cell-based. The settings on record: Mus musculus, 72 hours. As for the experimental part: as §1, §4, §3
The next data set concerns BaF3-TEL-cKit [N882K]. Briefly: Cell proliferation, Cell Titer-Glo, GI50. Format: cell-based. The following applies: Mus musculus, 72 hours. As for the experimental part:
as §1, §4, §3

Molecules are shown by their SMILES. Bounds are passed on as bounds.

From the text for PARP and Caspase 3: Western Blot was used to detect the effects of different concentrations of compounds on protein cleavage of the DNA repairase poly(ADP-ribose) polymerase (PARP) and Caspase (cysteinyl aspartate-specific proteinase) 3, wherein glyceraldehyde-3-phosphate dehydrogenase (GAPDH) was used as the internal standard protein.

In the case of `CC(C)(C)c1cc(NC(=O)Nc2ccc(-n3nc(-c4ccc(OCCN5CCOCC5)cc4)c4c(N)ncnc43)cc2)no1` [Compound 1, 1-(4-(4-amino-3-(4-(2-morpholinoethoxy)phenyl)-1H-pyrazolo[3,4-d]pyrimidin-1-yl)phenyl)-3-(5-(tert-butyl)isoxazol-3-yl)urea], the mice body weight entry is “no significant decrease” in the data set with MOLM-14 cells (3.75 mg/kg daily oral gavage), “did not decrease” in the data set on MOLM-14 cells (15 mg/kg daily oral gavage) and “did not decrease” in the data set with MOLM-14 cells ([…] daily oral gavage). Also, in the data set with STAT5, the “phosphorylation of STAT5” value is recorded as “significant inhibition”. In data set [1], the cell cycle distribution result was “arrested the cell cycle at phase G0-G1”. For the same compound, in the data set on PARP and Caspase 3 (MOLM-13, 0.003 μM, 12 hours), the “cleavage of Caspase 3” value is “significant cleavage”. Further, the “cleavage of the DNA repairase poly(ADP-ribose) polymerase (PARP)” value in the data set with PARP and Caspase 3 (MOLM-13, 0.003 μM, 12 hours) is listed as “significant cleavage”; in the data set on PARP and Caspase 3 (MV-4-11, 24 hours), “even more significant”.

As for `CC(=O)N1CCN(Cc2ccc(-c3nn(-c4ccc(NC(=O)Nc5cc(C(C)(C)C)on5)cc4)c4ncnc(N)c34)cc2)CC1` [Compound 21, 1-(4-(3-(4-((4-acetylpiperazin-1-yl)methyl)phenyl)-4amino-1H-pyrazolo[3,4-d]pyrimidin-1-yl)phenyl)-3-(5-(tert-butyl)isoxazol-3-yl)urea], the 50% growth inhibitory concentration (GI50) is roughly 10000 nM in the data set on BaF3; less than 0.3 nM in the data set on MV-4-11; less than 0.3 nM in the data set on MOLM-14; 2300 nM in the data set with U937; 9 nM in the data set with BaF3-TEL-FLT3 [D835Y]; less than 0.3 nM with BaF3-FLT3 [ITD]. Besides, the GI50 in the data set with BaF3-TEL-FLT3 [K663Q] worked out at 3600 nM; in the data set on BaF3-FLT3 [ITD + D835Y] it was 59 nM; with BaF3-TEL-FLT3, 1 nM; in the data set on BaF3-TEL-cKit [T670I], 4 nM; with BaF3-TEL-PEGFRb, 10 nM; in the data set with BaF3-TEL-cKit [D816V], 1800 nM. For the same compound, the 50% growth inhibitory concentration (GI50) in the data set with BaF3-TEL-cKIT was 31 nM; with BaF3-TEL-FLT3 [D835H] it was less than 0.3 nM; with BaF3-FLT3 [ITD + F691L] it was 120 nM; in the data set on BaF3-TEL-FLT3 [D835V] it was 4 nM; with BaF3-TEL-PDGFRa it was 2 nM; with BaF3-TEL-BMX, 5300 nM. Halving of growth with BaF3-TEL-cKit [N882K] (GI50) required 10 nM.

On to `CC(C)(C)c1cc(NC(=O)Nc2ccc(-n3nc(-c4ccc(OCCN5CCN(S(C)(=O)=O)CC5)cc4)c4c(N)ncnc43)cc2)no1` [Compound 22, 1-(4-(4-amino-3-(4-(2-(4-(methanesulfonyl)piperazin-1-yl)ethoxy)phenyl)-1H-pyrazolo[3,4-d]pyrimidin-1-yl)phenyl)-3-(5-(tert-butyl)isoxazol-3-yl)urea], for which the GI50 in the data set with BaF3 is 6500 nM; with MV-4-11, less than 0.3 nM; in the data set with MOLM-14, less than 0.3 nM; in the data set with U937, 8500 nM; with BaF3-TEL-FLT3 [D835Y], 20 nM; in the data set on BaF3-FLT3 [ITD], less than 0.3 nM. In addition, the GI50 with BaF3-TEL-FLT3 [K663Q] amounted to 3800 nM; with BaF3-FLT3 [ITD + D835Y], 100 nM; in the data set on BaF3-TEL-FLT3 it was 1 nM; in the data set with BaF3-TEL-cKit [T670I] it was 13 nM; in the data set with BaF3-TEL-PEGFRb, 12 nM; in the data set on BaF3-TEL-cKit [D816V], 2200 nM. The GI50 was 40 nM with BaF3-TEL-cKIT; 4 nM in the data set with BaF3-TEL-FLT3 [D835H]; 39 nM in the data set with BaF3-FLT3 [ITD + F691L]; 17 nM with BaF3-TEL-FLT3 [D835V]; 2 nM in the data set on BaF3-TEL-PDGFRa; 2000 nM with BaF3-TEL-BMX. Moreover, it took 15 nM to inhibit growth with BaF3-TEL-cKit [N882K] by half (GI50).

In the case of `CC(C)(C)c1cc(NC(=O)Nc2ccc(-c3cn4c(n3)sc3cc(OCCN5CCOCC5)ccc34)cc2)no1` [AC220, reference compound], the cell cycle distribution result in data set [1] is given as “similar”.

Broadly, the GI50 is the concentration giving 50% growth inhibition.

For the origin of these results see patent publication US10975082B2, “Inhibitor of FLT3 kinase and use thereof” (PRECEDO PHARMACEUTICALS CO., LTD, priority 2016, dated 2021).
